According to the supplement of paper PMC10307832:

How the values were obtained:
Assay in all cases: relative viability (nuclei count vs DMSO), 5 days (fraction); higher = more cells survive
[1] = tested on: A-427
Outline: (§1)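 Nuclei were stained with Hoechst during a one-step fixation (final 0.05% Triton X-100, 1% formaldehyde, 1 ug/ml Hoechst) carried out 5 days after dosing, then counted on 4× images. The cells, lung cancer lines in 1536-well plates, had been dosed by pin tool the day after seeding with one drug alone or a fixed anchor-drug dose plus five library-drug doses (not always all listed) in √10 steps. Relative viability is the nuclei count in treated wells divided by that in vehicle wells, and each value is the median of duplicate plates.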

[2] = tested on: CAL-12T
Outline: as §1

[3] = tested on: COR-L 105
Outline: as §1

[4] = tested on: EMC-BAC-2
Outline: as §1

[5] = tested on: HARA
Outline: as §1

[6] = tested on: HCC-366
Outline: as §1

[7] = tested on: HCC-827
Outline: as §1

[8] = tested on: HOP-62
Outline: as §1

[9] = tested on: LCLC-103H
Outline: as §1

[10] = tested on: NCI-H1355
Outline: as §1

[11] = tested on: NCI-H1395
Outline: as §1

[12] = tested on: NCI-H1437
Outline: as §1

[13] = tested on: NCI-H1755
Outline: as §1

[14] = tested on: NCI-H1792
Outline: as §1

[15] = tested on: NCI-H1915
Outline: as §1

[16] = tested on: NCI-H1975
Outline: as §1

[17] = tested on: NCI-H2009
Outline: as §1

[18] = tested on: NCI-H2228
Outline: as §1

[19] = tested on: NCI-H23
Outline: as §1

[20] = tested on: NCI-H460
Outline: as §1

[21] = tested on: NCI-H727
Outline: as §1

[22] = tested on: SK-LU-1
Outline: as §1

[23] = tested on: SW 1573
Outline: as §1

Oc1nc(-c2ccc(C(F)(F)F)cc2)nc2c1CSCC2 [XAV939] + COc1cccc2cc(-c3nc([C@H]4CC[C@H](C(=O)O)CC4)n4ncnc(N)c34)[nH]c12 [OSI-027] (partner 0.5 µM)
relative viability ([1]; first compound 0.08 µM): 0.49
relative viability ([1]; first compound 0.253 µM): 0.427
relative viability ([1]; first compound 0.8 µM): 0.419
relative viability ([1]; first compound 2.53 µM): 0.393
relative viability ([2]; first compound 0.08 µM): 0.635
relative viability ([2]; first compound 0.253 µM): 0.363
relative viability ([2]; first compound 0.8 µM): 0.441
relative viability ([2]; first compound 2.53 µM): 0.335
relative viability ([3]; first compound 0.08 µM): 0.722
relative viability ([3]; first compound 0.253 µM): 0.589
relative viability ([3]; first compound 0.8 µM): 0.5
relative viability ([3]; first compound 2.53 µM): 0.482
relative viability ([4]; first compound 0.08 µM): 0.402
relative viability ([4]; first compound 0.253 µM): 0.344
relative viability ([4]; first compound 0.8 µM): 0.319
relative viability ([4]; first compound 2.53 µM): 0.236
relative viability ([5]; first compound 0.08 µM): 0.436
relative viability ([5]; first compound 0.253 µM): 0.424
relative viability ([5]; first compound 0.8 µM): 0.3
relative viability ([5]; first compound 2.53 µM): 0.467
relative viability ([6]; first compound 0.08 µM): 0.962
relative viability ([6]; first compound 0.253 µM): 0.666
relative viability ([6]; first compound 0.8 µM): 1.03
relative viability ([6]; first compound 2.53 µM): 0.767
relative viability ([7]; first compound 0.08 µM): 0.817
relative viability ([7]; first compound 0.253 µM): 0.744
relative viability ([7]; first compound 0.8 µM): 0.826
relative viability ([7]; first compound 2.53 µM): 0.711
relative viability ([8]; first compound 0.08 µM): 1.01
relative viability ([8]; first compound 0.253 µM): 0.773
relative viability ([8]; first compound 0.8 µM): 0.763
relative viability ([8]; first compound 2.53 µM): 0.574
relative viability ([9]; first compound 0.08 µM): 0.534
relative viability ([9]; first compound 0.253 µM): 0.443
relative viability ([9]; first compound 0.8 µM): 0.463
relative viability ([9]; first compound 2.53 µM): 0.432
relative viability ([10]; first compound 0.08 µM): 0.396
relative viability ([10]; first compound 0.253 µM): 0.353
relative viability ([10]; first compound 0.8 µM): 0.368
relative viability ([10]; first compound 2.53 µM): 0.274
relative viability ([11]; first compound 0.08 µM): 0.656
relative viability ([11]; first compound 0.253 µM): 0.612
relative viability ([11]; first compound 0.8 µM): 0.556
relative viability ([11]; first compound 2.53 µM): 0.634
relative viability ([12]; first compound 0.08 µM): 1.03
relative viability ([12]; first compound 0.253 µM): 0.877
relative viability ([12]; first compound 0.8 µM): 0.89
relative viability ([12]; first compound 2.53 µM): 0.783
relative viability ([13]; first compound 0.08 µM): 0.731
relative viability ([13]; first compound 0.253 µM): 0.683
relative viability ([13]; first compound 0.8 µM): 0.739
relative viability ([13]; first compound 2.53 µM): 0.585
relative viability ([14]; first compound 0.08 µM): 0.82
relative viability ([14]; first compound 0.253 µM): 0.677
relative viability ([14]; first compound 0.8 µM): 0.839
relative viability ([14]; first compound 2.53 µM): 0.672
relative viability ([15]; first compound 0.08 µM): 0.707
relative viability ([15]; first compound 0.253 µM): 0.321
relative viability ([15]; first compound 0.8 µM): 0.597
relative viability ([15]; first compound 2.53 µM): 0.589
relative viability ([16]; first compound 0.08 µM): 0.829
relative viability ([16]; first compound 0.253 µM): 0.639
relative viability ([16]; first compound 0.8 µM): 0.681
relative viability ([16]; first compound 2.53 µM): 0.526
relative viability ([17]; first compound 0.08 µM): 0.676
relative viability ([17]; first compound 0.253 µM): 0.561
relative viability ([17]; first compound 0.8 µM): 0.507
relative viability ([17]; first compound 2.53 µM): 0.369
relative viability ([18]; first compound 0.08 µM): 0.704
relative viability ([18]; first compound 0.253 µM): 0.467
relative viability ([18]; first compound 0.8 µM): 0.479
relative viability ([18]; first compound 2.53 µM): 0.546
relative viability ([19]; first compound 0.08 µM): 0.65
relative viability ([19]; first compound 0.253 µM): 0.555
relative viability ([19]; first compound 0.8 µM): 0.628
relative viability ([19]; first compound 2.53 µM): 0.432
relative viability ([20]; first compound 0.08 µM): 0.904
relative viability ([20]; first compound 0.253 µM): 0.555
relative viability ([20]; first compound 0.8 µM): 0.745
relative viability ([20]; first compound 2.53 µM): 0.631
relative viability ([21]; first compound 0.08 µM): 0.696
relative viability ([21]; first compound 0.253 µM): 0.495
relative viability ([21]; first compound 0.8 µM): 0.744
relative viability ([21]; first compound 2.53 µM): 0.514
relative viability ([22]; first compound 0.08 µM): 0.387
relative viability ([22]; first compound 0.253 µM): 0.339
relative viability ([22]; first compound 0.8 µM): 0.394
relative viability ([22]; first compound 2.53 µM): 0.34
relative viability ([23]; first compound 0.08 µM): 0.602
relative viability ([23]; first compound 0.253 µM): 0.556
relative viability ([23]; first compound 0.8 µM): 0.542
relative viability ([23]; first compound 2.53 µM): 0.494
